Assay results published in patent US20130053430A1, “MODULATION OF CETP EXPRESSION” (Isis Pharmaceuticals, Inc., priority 2010, published 2013).
Strand notation (5' to 3'): a small letter for the sugar, then the base; units joined by * are phosphorothioate-linked, units joined directly phosphodiester-linked; [ ] holds rarer units or linkages, { } end groups; capitals alone tell only the bases. e = 2'-O-(2-methoxyethyl) (MOE); [5mC] = 5-methylcytosine; d = 2'-deoxy (DNA)

Assays:
human CETP mRNA [1] = assay: Dose-dependent antisense inhibition of human CETP in SW872 liposarcoma cells (Example 3); assay type: cell-based; details: Lipofectin, ~16 hours (Example 3)
Protocol: ISIS 17291 ([…], 6-8-6 MOE (SEQ ID NO: 115)), ISIS 17302 ([…], 6-8-6 MOE (SEQ ID NO: 116)), and ISIS 17305 ([…], 6-8-6 MOE (SEQ ID NO: 117), first disclosed in U.S. Ser. No. 11/031,827 (incorporated by reference herein), were also tested under the same conditions. Cells were plated at a density of 50,000 cells per well in a 24-well plate and transfected using Lipofectin reagent with 50 nM, 150 nM, and 300 nM concentrations of each antisense oligonucleotide. After approximately 16 hours, RNA was isolated from the cells and CETP mRNA levels were measured by quantitative real-time PCR. CETP mRNA levels were normalized to total RNA content, as measured by the house-keeping gene, GAPDH mRNA levels. Results are presented in Table 5 as percent inhibition of CETP, relative to untreated control cells.

human CETP mRNA [2] = assay: Antisense inhibition of human CETP mRNA in SW872 liposarcoma cells (Example 1); assay type: cell-based; details: 150 nM antisense oligonucleotide, lipofectin, ~24 hours, relative to untreated control cells
Outline: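 SW872 cells transfected (lipofectin) with 150 nM 5-10-5 MOE gapmer (phosphorothioate, 5-methylcytosine). After about 24 h, CETP mRNA measured by qRT-PCR, normalized to GAPDH; values are % inhibition versus untreated cells.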

[3] = Body and organ weights of huCETP transgenic mice (Example 5); assay type: in vivo; details: 50 mg/kg i.p. twice per week
Protocol: (§1) The mice were divided into five treatment groups. The first four groups received intraperitoneal injections of ISIS 349511, ISIS 349512, ISIS 349515, or ISIS 349517 at a dose of 50 mg/kg twice per week for 6 weeks. The fifth group received intraperitoneal injections of saline twice weekly for 6 weeks.
The body weights of the mice were measured pre-dose and regularly during the treatment period. The body weights are presented in Table 10, and are expressed in grams.

human CETP mRNA [4] = assay: Antisense inhibition of human CETP mRNA in primary hepatocytes from huCETP transgenic mice (Example 4); assay type: cell-based, mouse; details: cytofectin, ~24 hours
Outline: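 Primary hepatocytes from human CETP transgenic mice, 17,500 cells/well, transfected by cytofectin with 100 nM or 200 nM antisense oligonucleotide. After about 24 h, CETP mRNA quantified by real-time PCR, normalised to GAPDH, as percent inhibition versus untreated cells.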

[5] = Plasma cholesterol and triglyceride levels in huCETP transgenic mice (Example 5); assay type: in vivo; details: 50 mg/kg i.p. twice per week; for HDL / LDL / Total cholesterol / Triglycerides / VLDL: plasma
Protocol: as §1
Plasma cholesterol were extracted at weeks 3 and 6 by the method of Bligh and Dyer (Bligh, E. G. and Dyer, W. J. Can. J. Biochem. Physiol. 37: 911-917, 1959) and measured with an Olympus clinical analyzer (Hitachi Olympus AU400e, Melville, N.Y.). HDL, LDL and VLDL cholesterol were individually measured by HPLC. Triglyceride levels were measured with the use of a commercially available triglyceride kit (DCL Triglyceride Reagent; Diagnostic Chemicals Ltd.). The results are presented in Tables 13 and 14 and are expressed in mg/dL. There was a significant increase in HDL levels in mice treated with ISIS oligonucleotides.

[6] = Plasma glucose in huCETP transgenic mice (Example 5); assay type: in vivo; details: 50 mg/kg i.p. twice per week
Protocol: as §1
Plasma glucose values were determined using a Beckman Glucose Analyzer II (Beckman Coulter) by a glucose oxidase method (Lott, J. A. et al., Clin. Chem. 21: 1754-1760, 1975).

CETP protein = assay: Plasma CETP protein by ELISA in huCETP transgenic mice (Example 5); assay type: in vivo, human; details: normal chow, 50 mg/kg i.p. twice per week for 6 weeks, compared to PBS control
Protocol: as §1
Plasma levels of CETP protein were measured by ELISA (Alpco, N.H.). […] The results are expressed as percentage inhibition compared to the PBS control.

human CETP mRNA [7] = assay: Liver CETP mRNA in huCETP transgenic mice, normal chow (Example 5); assay type: in vivo; details: 50 mg/kg i.p. twice per week for 6 weeks, relative to PBS control
Protocol: Male huCETP transgenic mice were maintained on a 12-hour light/dark cycle and fed ad libitum normal Purina mouse chow. Animals were acclimated for at least 7 days in the research facility before initiation of the experiment. Antisense oligonucleotides (ASOs) were prepared in buffered saline (PBS) and sterilized by filtering through a 0.2 micron filter. Oligonucleotides were dissolved in 0.9% PBS for injection.
as §1
Twenty four hours after the final dose, the animals were sacrificed and liver tissue was isolated. Liver RNA was isolated for real-time PCR analysis of CETP. Two primer probe sets, hCETP (forward sequence […], designated herein as SEQ ID NO: 118; reverse sequence […], designated herein as SEQ ID NO: 119; probe sequence TGCGGACCGATGCCCCTGAX, designated herein as SEQ ID NO: 120) and hCETP2_LTS00182 (forward sequence […], designated herein as SEQ ID NO: 38; reverse sequence GGCTCACGCCTTTGCTGTT, designated herein as SEQ ID NO: 39: probe sequence CGGCTCGAGGTAGTGTTTACAGCCCTCX, designated herein as SEQ ID NO: 40), were used. These primer probe sets target the CETP mRNA transcript at different regions. As presented in Table 7, treatment with antisense oligonucleotides reduced CETP mRNA expression. The primer probe sets were used individually and collectively to measure CETP mRNA expression and gave similar results in all three cases. The RNA expression levels were normalized to murine Cyclophilin, a house-keeping gene, which is constitutively expressed. Cyclophilin levels were measured using the primer probe set described in Table 2. The results are expressed as percent inhibition of CETP mRNA, relative to the PBS control.

human CETP mRNA [8] = assay: Dose-dependent antisense inhibition of human CETP in SW872 liposarcoma cells (Example 2); assay type: cell-based; details: Lipofectin, ~16 hours (Example 2)
Protocol: Cells were plated at a density of 50,000 cells per well in a 24-well plate and transfected using Lipofectin reagent with 50 nM, 150 nM, and 300 nM concentrations of each antisense oligonucleotide. After approximately 16 hours, RNA was isolated from the cells and CETP mRNA levels were measured by quantitative real-time PCR. CETP mRNA levels were normalized to total RNA content, as measured by the house-keeping gene, GAPDH mRNA levels. Results are presented in Table 4 as percent inhibition of CETP, relative to untreated control cells.

Row | Substance | percent inhibition of CETP (human CETP mRNA [1]; 50 nM) [%] | percent inhibition of CETP (human CETP mRNA [1]; 150 nM) [%] | percent inhibition of CETP (human CETP mRNA [1]; 300 nM) [%] | % inhibition (human CETP mRNA [2]) [%] | Body weights ([3]; Week 0) [grams] | Body weights ([3]; Week 1) [grams] | Body weights ([3]; Week 2) [grams] | Body weights ([3]; Week 4) [grams] | Body weights ([3]; week 6) [grams] | Organ weights, Kidney ([3]; week 6) [mg] | Organ weights, Liver ([3]; week 6) [g] | Organ weights, Spleen ([3]; week 6) [mg] | Percent inhibition of human CETP mRNA (human CETP mRNA [4]; 100 nM) [%] | Percent inhibition of human CETP mRNA (human CETP mRNA [4]; 200 nM) [%] | Percentage of HDL in total cholesterol ([5]; Week 3) [%] | Percentage of HDL in total cholesterol ([5]; week 6) [%] | HDL ([5]; week 3) [mg/dL] | LDL ([5]; week 3) [mg/dL] | Total cholesterol ([5]; week 3) [mg/dL] | Triglycerides ([5]; week 3) [mg/dL] | also measured
1 | ISIS 17305: CCAGTGGGCCTTTAGGATAG, 6-8-6 MOE; first disclosed in U.S. Ser. No. 11/031,827 (antisense; sugars from the 5' end e6 d8 e6, backbone and methylation of C not given here) | 18 | 44 | 55 |  |  |  |  |  |  |  |  |  |  |  |  |  |  |  |  |  | 
2 | ISIS 349515: 5-10-5 MOE gapmer AACTTCCACCACGCTGGAGG (sugars from the 5' end e5 d10 e5, backbone and methylation of C not given here) |  |  |  | 53 | 25 | 26 | 27 | 28 | 28 | 349.5 | 1.7 | 89.3 | 94 | 94 | 68 | 75 | 60 | 19 | 89 | 83 | HDL ([5]; week 6): 66 mg/dL; LDL ([5]; week 6): 18 mg/dL; Total cholesterol ([5]; week 6): 87 mg/dL; Triglycerides ([5]; week 6): 115 mg/dL; VLDL ([5]; week 6): 4 mg/dL; Glucose levels ([6]; week 3): 275 mg/dL; Glucose levels ([6]; week 6): 237 mg/dL; Percent inhibition of plasma CETP protein levels (CETP protein): 40%; Percent inhibition of liver CETP mRNA expression, Combined primer probe sets (human CETP mRNA [7]): 57%; Percent inhibition of liver CETP mRNA expression, Primer probe set hCETP (human CETP mRNA [7]): 63%; Percent inhibition of liver CETP mRNA expression, Primer probe set hCETP2_LTS00182 (human CETP mRNA [7]): 52%
3 | ISIS 349513: 5-10-5 MOE gapmer TCCAGCTGTGAGCCTGGTGC (eT*e[5mC]*e[5mC]*eA*eG*d[5mC]*dT*dG*dT*dG*dA*dG*d[5mC]*d[5mC]*dT*eG*eG*eT*eG*e[5mC]) | 87 | 89 | 91 | 83 |  |  |  |  |  |  |  |  | 73 | 92 |  |  |  |  |  |  | percent inhibition of CETP (human CETP mRNA [8]; 50 nM): 97%; percent inhibition of CETP (human CETP mRNA [8]; 150 nM): 100%; percent inhibition of CETP (human CETP mRNA [8]; 300 nM): 95%
4 | ISIS 349512: 5-10-5 MOE gapmer TTGCCTTCTGCTACAAGCCC (sugars from the 5' end e5 d10 e5, backbone and methylation of C not given here) |  |  |  | 92 | 19 | 21 | 24 | 26 | 28 | 333.8 | 2.1 | 86.8 | 86 | 96 | 74 | 74 | 62 | 14 | 85 | 100 | HDL ([5]; week 6): 100 mg/dL; LDL ([5]; week 6): 31 mg/dL; Total cholesterol ([5]; week 6): 134 mg/dL; Triglycerides ([5]; week 6): 92 mg/dL; VLDL ([5]; week 6): 3 mg/dL; Glucose levels ([6]; week 3): 267 mg/dL; Glucose levels ([6]; week 6): 248 mg/dL; Percent inhibition of plasma CETP protein levels (CETP protein): 76%; Percent inhibition of liver CETP mRNA expression, Combined primer probe sets (human CETP mRNA [7]): 95%; Percent inhibition of liver CETP mRNA expression, Primer probe set hCETP (human CETP mRNA [7]): 96%; Percent inhibition of liver CETP mRNA expression, Primer probe set hCETP2_LTS00182 (human CETP mRNA [7]): 94%; percent inhibition of CETP (human CETP mRNA [8]; 50 nM): 86%; percent inhibition of CETP (human CETP mRNA [8]; 150 nM): 98%; percent inhibition of CETP (human CETP mRNA [8]; 300 nM): 97%
5 | ISIS 17302: GCTTGCCTTCTGCTACAAGC, 6-8-6 MOE; first disclosed in U.S. Ser. No. 11/031,827 (antisense; sugars from the 5' end e6 d8 e6, backbone and methylation of C not given here) | 0 | 41 | 45 |  |  |  |  |  |  |  |  |  |  |  |  |  |  |  |  |  | 
6 | ISIS 17291: GACAAGTGGCTGATCTGGAT, 6-8-6 MOE; first disclosed in U.S. Ser. No. 11/031,827 (antisense; sugars from the 5' end e6 d8 e6, backbone and methylation of C not given here) | 35 | 0 | 0 |  |  |  |  |  |  |  |  |  |  |  |  |  |  |  |  |  | 
